Experimental data: patent US20050256085A1, “Fungicidal mixtures” (priority 2002, published 2005)
Like-named read-outs stand apart in the source and are kept apart here.

Columns and labels:
[1] = tested on: Plasmopara viticola; test: Persistency against Peronospora of grapevines caused by Plasmopara viticola; type: in vivo; conditions: grapevine leaves, inoculated 3 days after spraying
[2] = tested on: Phytophthora infestans; type: in vivo; conditions: tomato leaves, infected next day, assessed after 6 days

| SMILES | Efficacy in % of the untreated control ([1]; 1.9 ppm in the spray liquor) | Efficacy in % of the untreated control ([1]; 3.75 ppm in the spray liquor) | Efficacy in % of the untreated control ([2]; 1.9 ppm in the spray liquor) | Efficacy in % of the untreated control ([2]; 3.75 ppm in the spray liquor) | Efficacy in % of the untreated control ([2]; 7.5 ppm in the spray liquor) | Efficacy in % of the untreated control ([1]; 0.19 ppm in the spray liquor) | Efficacy in % of the untreated control ([1]; 0.375 ppm in the spray liquor) | Efficacy in % of the untreated control ([1]; 1.5 ppm in the spray liquor) | Efficacy in % of the untreated control ([1]; 3 ppm in the spray liquor) | Efficacy in % of the untreated control ([2]; 0.19 ppm in the spray liquor) | Efficacy in % of the untreated control ([2]; 0.375 ppm in the spray liquor) | Efficacy in % of the untreated control ([2]; 0.75 ppm in the spray liquor) | Efficacy in % of the untreated control ([2]; 1.5 ppm in the spray liquor) | Efficacy in % of the untreated control ([2]; 3 ppm in the spray liquor) |
| --- | --- | --- | --- | --- | --- | --- | --- | --- | --- | --- | --- | --- | --- | --- |
| N#Cc1sc2c(=O)c3ccccc3c(=O)c=2sc1C#N [II, dithianon] | 48% | 58% | 0% | 0% | 0% | – | – | – | – | – | – | – | – | – |
| CC(C)OC(=O)N[C@H](C(=O)N[C@H](C)c1nc2ccc(F)cc2s1)C(C)C [Ia] | – | – | – | – | – | 48% | 58% | 79% | 84% | 56% | 67% | 78% | 83% | 89% |
